Molecular target: Platelet-derived growth factor receptor beta (Homo sapiens, UniProt P09619)
Assay: The rest of the stock solutions was storaged at ⿿20° C. after subpackage.

Platelet-derived growth factor receptor beta, sequence (P09619 whole entry): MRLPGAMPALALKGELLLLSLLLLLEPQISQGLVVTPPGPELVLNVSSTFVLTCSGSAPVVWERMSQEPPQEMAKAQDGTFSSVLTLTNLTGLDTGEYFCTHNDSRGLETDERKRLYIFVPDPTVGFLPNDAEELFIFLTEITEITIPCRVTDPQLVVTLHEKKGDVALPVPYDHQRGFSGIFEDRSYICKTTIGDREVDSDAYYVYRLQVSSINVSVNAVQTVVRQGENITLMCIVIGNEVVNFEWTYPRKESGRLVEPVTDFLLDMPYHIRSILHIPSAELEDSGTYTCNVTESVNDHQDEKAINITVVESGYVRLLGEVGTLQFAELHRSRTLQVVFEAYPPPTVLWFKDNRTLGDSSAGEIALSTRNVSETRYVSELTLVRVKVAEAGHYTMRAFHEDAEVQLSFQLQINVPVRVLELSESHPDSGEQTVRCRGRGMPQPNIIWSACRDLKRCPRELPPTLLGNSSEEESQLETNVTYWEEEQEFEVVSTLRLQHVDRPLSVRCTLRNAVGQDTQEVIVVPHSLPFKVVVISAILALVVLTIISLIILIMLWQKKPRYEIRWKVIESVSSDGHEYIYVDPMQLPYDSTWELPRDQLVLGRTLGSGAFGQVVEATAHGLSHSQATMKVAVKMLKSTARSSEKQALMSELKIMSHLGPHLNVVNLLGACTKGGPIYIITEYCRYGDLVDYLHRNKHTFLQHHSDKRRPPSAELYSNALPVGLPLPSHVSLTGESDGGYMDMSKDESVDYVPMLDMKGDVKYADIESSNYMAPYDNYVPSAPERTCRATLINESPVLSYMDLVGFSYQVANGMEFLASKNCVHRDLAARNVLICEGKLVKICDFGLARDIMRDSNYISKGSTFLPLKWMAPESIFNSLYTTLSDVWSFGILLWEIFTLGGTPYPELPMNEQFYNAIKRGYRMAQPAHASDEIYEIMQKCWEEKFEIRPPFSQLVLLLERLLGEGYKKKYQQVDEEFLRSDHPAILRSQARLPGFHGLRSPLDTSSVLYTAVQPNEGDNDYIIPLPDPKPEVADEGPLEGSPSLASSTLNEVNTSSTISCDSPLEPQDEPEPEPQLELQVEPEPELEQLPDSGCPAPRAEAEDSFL

Structure (SMILES) | IC50 [nM]
Cc1ccc(F)c(NC(=O)Nc2ccc(-c3ccc(OCCCN4CCCC4)c4[nH]nc(N)c34)c3ccccc23)c1 | 16.3
Cc1cccc(NC(=O)Nc2ccc(-c3ccc(OCCCN4CCCC4)c4[nH]nc(N)c34)c3ccccc23)c1 | 45.4
Cc1ccc(F)c(NC(=O)Nc2ccc(-c3ccc(OCCC(C)(C)N)c4[nH]nc(N)c34)c3ccccc23)c1 | 106
Cc1cccc(NC(=O)Nc2ccc(-c3cncc4[nH]nc(N)c34)c3ccccc23)c1 | 6.7
Cc1ccc(F)c(NC(=O)Nc2ccc(-c3cncc4[nH]nc(N)c34)c3ccccc23)c1 | 25.4
Cc1cccc(NC(=O)Nc2ccc(-c3ccc(OCCC(C)(C)N)c4[nH]nc(N)c34)c3ccccc23)c1 | 155

Reference: ChEMBL document CHEMBL3886965, “Naphthylurea derivatives and medical applications thereof” (2016)
